Measured values taken from paper PMC7866175, “Genomics-Driven Activation of Silent Biosynthetic Gene Clusters in Burkholderia gladioli by Screening Recombineering System” (Molecules, 2021).
Read-outs that look alike come from different tables or passages of the source. *1 amine or outer side, *2 acyl side, *3 side chain or, on linkers, in order; H or OH if unused. Where a SMILES comes first, the peptide text is derived from it. [ ]: non-standard residue; d: D form. The star is where a group is joined. ξ: configuration not given here. Decanoyl(3ξ-OH) = CCCCCCCC(O)CC(=O)*; X1 = CC=C(N[*:1])C(=O)[*:2]

Legend:
Type in all cases: cell-based
K562 = test: Cytotoxic activity assay; details: human hematological disease cells K562
[1] = tested on: Bacillus subtilis ATCC 6633; test: Antibacterial activity assay; details: ATCC6633; Gram-positive bacterium Bacillus subtilis ATCC 6633
[2] = tested on: Pseudomonas aeruginosa ATCC 27853; test: Antibacterial activity assay; details: ATCC27853; Gram-negative bacterium Pseudomonas aeruginosa ATCC 27853
[3] = tested on: Staphylococcus aureus ATCC 29213; test: Antibacterial activity assay; details: ATCC29213; Gram-positive bacterium Staphylococcus aureus ATCC 29213
HCT116 = test: Cytotoxic activity assay; details: Homo sapiens, HCT-116, read-out: cytotoxic activity IC50, HCT116
HepG-2 = test: Cytotoxic activity assay; details: HepG2; human hepatoma cell HepG-2
[4] = tested on: Escherichia coli ATCC 35218; test: Antibacterial activity assay; details: ATCC35218
A549 = test: Cytotoxic activity assay; details: human lung adenocarcinoma cell A549
Cytotoxic activity assay = details: human, normal cell line 293T
MCF-7 = test: Cytotoxic activity assay; details: human breast adenocarcinoma cells MCF7
Hela = test: Cytotoxic activity assay; details: human cervix epithelioid carcinoma Hela
[5] = Gram-negative bacterium Escherichia coli ATCC 35218, read-out: MIC

Row | SMILES | IC50 (K562) [µM] | MIC [1] [µM] | MIC [2] [µM] | MIC [3] [µM] | IC50 (HCT116) [µM] | IC50 (HepG-2) [µM] | MIC [4, 5] [µM] | IC50 (A549) [µM] | IC50 (Cytotoxic activity assay) [µM] | IC50 (MCF-7) [µM] | IC50 (Hela) [µM] | IC50 (Cytotoxic activity assay; 293T cells (normal cell line)) [µM] | MIC ([4]; Escherichia coli) [µM]
1 | CC=C(NC(=O)CCCCCCC)C(=O)NC(=CC)C(=O)NC(Cc1ccc(O)cc1)C(=O)O (stereo not shown) [Compound 10, Haereogladiodin B] | > 20 | > 100 | > 100 | > 100 | > 20 | > 20 | > 100 | > 20 | 33.9 ± 0.75 | > 20 | > 20 |  | 
2 | COc1cccc2c1C(=O)c1c(O)c3c(c(O)c1C2=O)C[C@@](O)(C(=O)CO)C[C@@H]3O[C@H]1C[C@H](N)[C@H](O)[C@H](C)O1 [adriamycin, reference compound] | 0.57 ± 0.02 |  |  |  | 0.73 ± 0.05 | 0.68 ± 0.001 |  | 0.61 ± 0.03 |  | 0.86 ± 0.07 | 0.61 ± 0.07 | 1.47 ± 0.15 | 
3 | CC=C(NC(=O)CCCCCCC)C(=O)NC(=CC)C(=O)NC(Cc1ccc(O)cc1)C(=O)NC(CC(C)C)C(=O)Nc1ccc(C(=O)NC(C(=O)O)C(C)O)cc1 (stereo not shown) [Compound 9, Haereogladiodin A] | > 20 | > 100 | > 100 | > 100 | > 20 | > 20 | > 100 | > 20 | 36.1 ± 0.81 | > 20 | > 20 |  | 
4 | CC=C(NC(=O)CC(O)CCCCCCC)C(=O)N1CCCC1C(=O)NC(CCC(N)=O)C(=O)NC(C)C(=O)NC(C)C(=O)NC(Cc1ccccc1)C(=O)O (stereo not shown) [Compound 8, Burriogladiodin H] ({Decanoyl(3ξ-OH)}-[X1]PQAAF-OH; configuration not given here) | > 20 | > 100 | > 100 | > 100 | > 20 | > 20 |  | > 20 | > 40 | > 20 | > 20 |  | > 100
5 | CC=C(NC(=O)CC(O)CCCCCCC)C(=O)N1CCCC1C(=O)NC(CCC(N)=O)C(=O)NC(C)C(=O)NC(C(=O)NC(Cc1ccccc1)C(=O)N1CCCC1C(=O)NC(C(=O)O)C(C)O)C(C)C (stereo not shown) [Compound 2, Burriogladiodin B] ({Decanoyl(3ξ-OH)}-[X1]PQAVFPT-OH; configuration not given here) | > 20 | > 100 | > 100 | > 100 | > 20 | > 20 |  | > 20 | > 40 | > 20 | > 20 |  | > 100
6 | CC=C(NC(=O)CC(O)CCCCCCC)C(=O)N1CCCC1C(=O)NC(CCC(N)=O)C(=O)NC(C)C(=O)NC(C(=O)NC(Cc1ccccc1)C(=O)N1CCCC1C(=O)O)C(C)C (stereo not shown) [Compound 1, Burriogladiodin A] ({Decanoyl(3ξ-OH)}-[X1]PQAVFP-OH; configuration not given here) | > 20 | > 100 | > 100 | > 100 | > 20 | > 20 |  | > 20 | 29.4 ± 0.85 | > 20 | > 20 |  | > 100
7 | CC=C(NC(=O)CC(O)CCCCCCC)C(=O)N1CCCC1C(=O)NC(CCC(N)=O)C(=O)NC(C)C(=O)NC(C(=O)NC(Cc1ccccc1)C(=O)O)C(C)C (stereo not shown) [Compound 5, Burriogladiodin E] ({Decanoyl(3ξ-OH)}-[X1]PQAVF-OH; configuration not given here) | > 20 | > 100 | > 100 | > 100 | > 20 | > 20 |  | > 20 | 24.9 ± 0.96 | > 20 | > 20 |  | > 100
